US9573972B2, “Nurotoxic sterol glycosides” (priority 2008, dated 2017)
Entries after “also recorded” stand apart in the source; their conditions may differ.

Key:
Format in all cases: in vivo, mouse
lipid deposits = assay: Oil red O histochemistry of lipid deposits
Protocol: Tissue-mounted slides were processed to evaluate lipid distribution with light microscopy with a protocol adapted from Dr. Roy Ellis (IMVS Division of Pathology, The Queen Elizabeth Hospital, Woodville, South Australia). First, an oil red O stock solution was prepared 2 hours prior to execution of the histochemical procedures. The oil red O stock stain solution was made by mixing oil red O (0.5 g, Sigma-Aldrich, Oakville, ON, Canada) and isopropanol (100 mL, Fisher Scientific, Nepean, ON, Canada) over a 40° C. water bath. Immediately prior to beginning the oil red O histochemical procedures, the oil red O working solution was made by combining 20 mL of distilled water for every 30 mL of oil red O stock stain solution. […] Slide-mounted sections were rinsed in coplin jars for 15 minutes at RT in three changes of PBS. Sections were then rinsed at RT with 60% isopropanol for 5 minutes. The spinal cord sections were then stained with a freshly prepared working solution of oil red O for 20 minutes and then rinsed with 60% isopropanol. Nuclear counterstaining was achieved by staining the sections with haematoxylin (haematoxylin, 7211, Richard Allan Scientific, Kalamazoo, Mich., USA) for 1 minute. Finally, the sections were rinsed with distilled water, dried under a fume hood and cover-slipped with Entellen (Merck, Darmstadt, Germany).
The numbers of immunoreactive somata or inclusions were counted across the ventral horn of the spinal cord, across brain hemispheres, or per dorsal or ventral root with the 40× objective lens in a 600 μm/600 μm area within region perimeters defined by a mouse brain atlas (2001). For each animal, eight cross-sections per spinal cord or brain region were studied. An average of both the right and left ventral horn for each of the eight cross sections was generated giving a final averaged number for each animal in each of the spinal cord areas. For quantification of the level of mitochondrial activity (cytochrome c oxidase labelling) in the lumbar spinal cord or tyrosine hydroxylase immunoreactivity in the substantia nigra pars compacta and striatal sections, images captured using the Motic B5 Professional Series 3.0 microscope (Motic Instruments Inc., Richmond, ON) and analyzed using Motic B5 Professional, Motic Images Advanced 3.0 (Motic Instruments Inc., Richmond, ON) were scanned into a TIFF format file and analysed using the NIH Image J 1.37 software to measure density levels of antibody labelling. Eight to 12 sections from each mouse per region of interest were included.

[1] = test system: Tyrosine Hydroxylase (dopaminergic cells); assay: Tyrosine hydroxylase immunohistochemistry; details: striatum, SG-fed, either time-point
Protocol: Labelling of dopaminergic neurons in brain sections was identified by antibodies for tyrosine hydroxylase (Morrow, C. E., Bandstra, et al., (2001) Neurotoxicol Teratol. 23, 533-44) and indirect immunoperoxidase staining. Sections were incubated in blocking serum for 2 hours then with the primary antibody (rabbit anti-tyrosine hydroxylase, 1:500, Affinity Bioreagents, Golden, Colo., USA) for 3 hours at RT. Sections were rinsed and incubated in biotinylated goat anti-rabbit IgG (1:100; Vector laboratories Inc., Burlingame, USA) for 30 minutes at RT, then visualized using the ABC method (Vectastain Elite ABC kit, Vector Laboratories Inc.).
The numbers of immunoreactive somata or inclusions were counted across the ventral horn of the spinal cord, across brain hemispheres, or per dorsal or ventral root with the 40× objective lens in a 600 μm/600 μm area within region perimeters defined by a mouse brain atlas (2001). For each animal, eight cross-sections per spinal cord or brain region were studied. An average of both the right and left ventral horn for each of the eight cross sections was generated giving a final averaged number for each animal in each of the spinal cord areas. […]

male CD-1 mice = assay: Rotarod test, SG-fed mice; details: SG-fed vs control, duration of study
Excerpt: Five-month old male CD-1 mice (30.1-35.7 g, 7.5 cm-8.8 cm) were purchased from Charles River (Wilmington, Mass.). Adult mice were chosen to mimic the mean age of onset of ALS-PDC (Kurland, L. T. (1988a) Trends Neurosci. 11, 51-4; Kurland, L. T., et al. (1994) Amyotrophic lateral sclerosis-parkinsonism-dementia complex on Guam: epidemiologic and etiological perspectives. 109-131). Thirty mice for the SG study were randomly divided into 2 groups (14 control and 16 experimental animals). All animals were housed singly in a virus-free barrier facility in a room maintained at 22° C. under a 12 hour light/dark cycle. The mice were provided ad libitum access to food and water.
The synthetic SG was mixed with finely ground Purina Chow mouse pellets (Mouse Diet™, Purina) to create the experimental pellets with a SG content of 1000 μg per pellet. Dry materials were blended with a sterile silicon spatula. For every 5 g of standard feed, 2.5 mL of doubly-distilled water (dd)H2O was added and the dough was kneaded and round up into pellets. A single sterol glucoside containing pellet was placed in the feeding tray each morning before the addition of regular mouse chow (ad libitum). All experimental pellets were entirely consumed by the mice each day. […] SG feeding was conducted daily for 15 weeks and mice were behaviorally monitored until sacrifice at 35 weeks (time point 1) or 52 weeks (time point 2). […]

CC[C@H](/C=C/[C@@H](C)[C@H]1CC[C@H]2[C@@H]3CC=C4C[C@@H](O[C@@H]5O[C@H](CO)[C@@H](O)[C@H](O)[C@H]5O)CC[C@]4(C)[C@H]3CC[C@]12C)C(C)C [SG, Stigmasterol β-D-Glucopyranoside]
Lipid deposits DR over time (lipid deposits; SG-fed over time (35 to 52 wk)): did not show time-dependent effects; also recorded: SG-fed DR over time: ns, p = 0.8062
Lipid deposits Lsc over time (lipid deposits; SG-fed over time (35 to 52 wk)): did not experience an accumulation of deposits over time; also recorded: SG-fed Lsc over time: ns, p = 0.4864
Lipid deposits VR over time (lipid deposits; SG-fed over time (35 to 52 wk)): did not show time-dependent effects; also recorded: SG-fed VR over time: ns, p = 0.5478
Lipids in dorsal roots (lipid deposits; SG-fed vs control, 35 weeks): not significant
Lipids in ventral spinal roots, change (lipid deposits; SG-fed vs control, 35 weeks): +10%
Lipids in dorsal root (lipid deposits; SG-fed vs control, 52 weeks): statistically significant inter-group differences were not found
Lipids in ventral root (lipid deposits; SG-fed vs control, 52 weeks): statistically significant inter-group differences were not found
Number and size of lipid deposits (lipid deposits; lumbar spinal cord and ventral roots, SG-fed vs control): greater
Decrease in tyrosine hydroxylase optical density in striata [1]: not significant
Rotarod performance (time without fall) (male CD-1 mice): decrease in the time without fall; also recorded: trend of diminished performance
